{"source": "the supplement of paper PMC9013687", "key": {"Danio rerio embryo [1]": {"system": "Danio rerio embryo", "experiment": "EC10 Bladder size_Decrease; higher = less potent", "conditions": "exposure time: 4 dpf", "method": "(§1)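 Zebrafish embryos (UFZ-OBI strain) were exposed from 2 hpf for 48 h (2 dpf) or 96 h (4 dpf) at 28 °C; spontaneous tail coiling was scored at 25 hpf. Morphological features from automated image analysis (FishInspector), heart rate and locomotor response were fitted with drc models. Quantal endpoints were dichotomised at 2.5 SD from controls and fitted with a log-logistic model; heart rate, pigmentation and STC were normalised to the replicate control mean. Betamethasone was tested as betamethasone dipropionate, diflorasone as diflorasone diacetate.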"}, "Danio rerio embryo [2]": {"system": "Danio rerio embryo", "experiment": "EC50 Bladder size_Decrease", "conditions": "exposure time: 4 dpf", "method": "as §1"}, "Danio rerio embryo [3]": {"system": "Danio rerio embryo", "experiment": "EC20 Lack of SB; higher = less potent", "conditions": "exposure time: 4 dpf", "method": "as §1"}, "Danio rerio embryo [4]": {"system": "Danio rerio embryo", "experiment": "EC10 Eye-jaw distance_Decrease; higher = less potent", "conditions": "exposure time: 4 dpf", "method": "as §1"}, "Danio rerio embryo [5]": {"system": "Danio rerio embryo", "experiment": "EC50 Eye-jaw distance_Decrease", "conditions": "exposure time: 4 dpf", "method": "as §1"}, "Danio rerio embryo [6]": {"system": "Danio rerio embryo", "method": "as §1"}, "Danio rerio embryo [7]": {"system": "Danio rerio embryo", "experiment": "EC20 Body length_Decrease; higher = less potent", "method": "as §1"}, "Danio rerio embryo [8]": {"system": "Danio rerio embryo", "experiment": "EC20 LMR dark; higher = less potent", "conditions": "exposure time: 4 dpf", "method": "as §1"}, "Danio rerio embryo [9]": {"system": "Danio rerio embryo", "experiment": "EC20 Pericard size_Increase; higher = less potent", "method": "as §1"}, "Danio rerio embryo [10]": {"system": "Danio rerio embryo", "experiment": "EC20 Curvature_Increase; higher = less potent", "method": "as §1"}, "Danio rerio embryo [11]": {"system": "Danio rerio embryo", "experiment": "EC20 Bladder size_Decrease; higher = less potent", "conditions": "exposure time: 4 dpf", "method": "as §1"}, "Danio rerio embryo [12]": {"system": "Danio rerio embryo", "experiment": "EC50 Yolk sac size_Increase", "conditions": "exposure time: 4 dpf", "method": "as §1"}, "Danio rerio embryo [13]": {"system": "Danio rerio embryo", "experiment": "EC10 Any effect; higher = less potent", "method": "as §1"}, "Danio rerio embryo [14]": {"system": "Danio rerio embryo", "experiment": "EC20 Eye-jaw distance_Decrease; higher = less potent", "conditions": "exposure time: 4 dpf", "method": "as §1"}, "Danio rerio embryo [15]": {"system": "Danio rerio embryo", "experiment": "EC20 Otolith-eye distance_Decrease; higher = less potent", "conditions": "exposure time: 4 dpf", "method": "as §1"}, "Danio rerio embryo [16]": {"system": "Danio rerio embryo", "experiment": "EC10 Curvature_Increase; higher = less potent", "method": "as §1"}, "Danio rerio embryo [17]": {"system": "Danio rerio embryo", "experiment": "spontaneous tail coiling frequency (coils/min/embryo); higher = more spontaneous movement", "conditions": "25 hpf", "method": "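Spontaneous tail coilings of zebrafish embryos exposed from 2 hpf were recorded at 24-25 hpf in 1-min videos and detected by a KNIME workflow from grey-value variance. Betamethasone was tested as the dipropionate, diflorasone as the diacetate.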"}, "Danio rerio embryo [18]": {"system": "Danio rerio embryo", "experiment": "EC10 Body length_Decrease; higher = less potent", "method": "as §1"}, "Danio rerio embryo [19]": {"system": "Danio rerio embryo", "experiment": "EC50 Pericard size_Increase", "method": "as §1"}, "Danio rerio embryo [20]": {"system": "Danio rerio embryo", "experiment": "EC10 Otolith-eye distance_Decrease; higher = less potent", "conditions": "exposure time: 4 dpf", "method": "as §1"}, "Danio rerio embryo [21]": {"system": "Danio rerio embryo", "experiment": "EC20 Yolk sac size_Increase; higher = less potent", "conditions": "exposure time: 4 dpf", "method": "as §1"}, "Danio rerio embryo [22]": {"system": "Danio rerio embryo", "experiment": "EC50 Curvature_Increase", "method": "as §1"}, "Danio rerio embryo [23]": {"system": "Danio rerio embryo", "experiment": "EC10 LMR dark; higher = less potent", "conditions": "exposure time: 4 dpf", "method": "as §1"}, "Danio rerio embryo [24]": {"system": "Danio rerio embryo", "experiment": "EC10 Pericard size_Increase; higher = less potent", "method": "as §1"}, "Danio rerio embryo [25]": {"system": "Danio rerio embryo", "experiment": "EC10 Yolk sac size_Increase; higher = less potent", "conditions": "exposure time: 4 dpf", "method": "as §1"}, "Danio rerio embryo [26]": {"system": "Danio rerio embryo", "conditions": "exposure time: 4 dpf", "method": "as §1"}, "Danio rerio embryo [27]": {"system": "Danio rerio embryo", "experiment": "EC50 Body length_Decrease", "method": "as §1"}, "Danio rerio embryo [28]": {"system": "Danio rerio embryo", "experiment": "EC50 Otolith-eye distance_Decrease", "conditions": "exposure time: 4 dpf", "method": "as §1"}, "Danio rerio embryo [29]": {"system": "Danio rerio embryo", "experiment": "EC20 Any effect; higher = less potent", "method": "as §1"}}, "note": "± gives the standard deviation of the averaged measurements.", "data": [{"smiles": "O=C(O)CCc1nc(-c2ccccc2)c(-c2ccccc2)o1", "note": "[Oxaprozin]", "values": [{"measurement": "EC10 Bladder size Decrease", "setting": "Danio rerio embryo [1]", "result": 11.5, "unit": "µM"}, {"measurement": "EC50 Bladder size Decrease", "setting": "Danio rerio embryo [2]", "result": 12.2, "unit": "µM"}, {"measurement": "EC20 Lack of SB", "setting": "Danio rerio embryo [3]", "result": 8.73, "unit": "µM"}, {"measurement": "EC10 Eye-jaw distance Decrease", "setting": "Danio rerio embryo [4]", "result": 12.7, "unit": "µM"}, {"measurement": "EC50 Eye-jaw distance Decrease", "setting": "Danio rerio embryo [5]", "result": 21.5, "unit": "µM"}, {"measurement": "EC50 Any effect", "setting": "Danio rerio embryo [6]; exposure time: 2 dpf", "result": 30.2, "unit": "µM"}, {"measurement": "EC50 Any effect", "setting": "Danio rerio embryo [6]; exposure time: 4 dpf", "result": 20.2, "unit": "µM"}, {"measurement": "EC50 Pigmentation increase", "setting": "Danio rerio embryo [6]; exposure time: 4 dpf", "result": 35.6, "unit": "µM"}, {"measurement": "EC20 Body length Decrease", "setting": "Danio rerio embryo [7]; exposure time: 2 dpf", "result": 29.3, "unit": "µM"}, {"measurement": "EC20 Body length Decrease", "setting": "Danio rerio embryo [7]; exposure time: 4 dpf", "result": 21.8, "unit": "µM"}, {"measurement": "EC20 LMR dark", "setting": "Danio rerio embryo [8]", "result": 13.3, "unit": "µM"}, {"measurement": "EC20 Pericard size Increase", "setting": "Danio rerio embryo [9]; exposure time: 2 dpf", "result": 38.6, "unit": "µM"}, {"measurement": "EC20 Pericard size Increase", "setting": "Danio rerio embryo [9]; exposure time: 4 dpf", "result": 14.1, "unit": "µM"}, {"measurement": "EC20 Curvature Increase", "setting": "Danio rerio embryo [10]; exposure time: 2 dpf", "result": 38, "unit": "µM"}, {"measurement": "EC20 Curvature Increase", "setting": "Danio rerio embryo [10]; exposure time: 4 dpf", "result": 24.8, "unit": "µM"}, {"measurement": "EC20 Bladder size Decrease", "setting": "Danio rerio embryo [11]", "result": 11.8, "unit": "µM"}, {"measurement": "EC50 Yolk sac size Increase", "setting": "Danio rerio embryo [12]", "result": 22.6, "unit": "µM"}, {"measurement": "EC10 Any effect", "setting": "Danio rerio embryo [13]; exposure time: 2 dpf", "result": 14.9, "unit": "µM"}, {"measurement": "EC10 Any effect", "setting": "Danio rerio embryo [13]; exposure time: 4 dpf", "result": 13, "unit": "µM"}, {"measurement": "EC20 Eye-jaw distance Decrease", "setting": "Danio rerio embryo [14]", "result": 15.4, "unit": "µM"}, {"measurement": "EC20 Otolith-eye distance Decrease", "setting": "Danio rerio embryo [15]", "result": 19.2, "unit": "µM"}, {"measurement": "EC10 Curvature Increase", "setting": "Danio rerio embryo [16]; exposure time: 2 dpf", "result": 28.7, "unit": "µM"}, {"measurement": "EC10 Curvature Increase", "setting": "Danio rerio embryo [16]; exposure time: 4 dpf", "result": 21.8, "unit": "µM"}, {"measurement": "spontaneous tail coiling frequency", "setting": "Danio rerio embryo [17]; 15.2 µM", "result": 4.43}, {"measurement": "spontaneous tail coiling frequency", "setting": "Danio rerio embryo [17]; 17 µM", "result": 3.98}, {"measurement": "spontaneous tail coiling frequency", "setting": "Danio rerio embryo [17]; 22.7 µM", "result": 4.29}, {"measurement": "spontaneous tail coiling frequency", "setting": "Danio rerio embryo [17]; 34.1 µM", "result": "4.85 ± 1.1"}, {"measurement": "spontaneous tail coiling frequency", "setting": "Danio rerio embryo [17]; 51.1 µM", "result": 5.84}, {"measurement": "spontaneous tail coiling frequency", "setting": "Danio rerio embryo [17]; 68.2 µM", "result": 4.34}, {"measurement": "spontaneous tail coiling frequency", "setting": "Danio rerio embryo [17]; 85.2 µM", "result": 8.82}, {"measurement": "spontaneous tail coiling frequency", "setting": "Danio rerio embryo [17]; 102.3 µM", "result": 6.78}, {"measurement": "EC10 Body length Decrease", "setting": "Danio rerio embryo [18]; exposure time: 2 dpf", "result": 25.1, "unit": "µM"}, {"measurement": "EC10 Body length Decrease", "setting": "Danio rerio embryo [18]; exposure time: 4 dpf", "result": 19.3, "unit": "µM"}, {"measurement": "EC50 Pericard size Increase", "setting": "Danio rerio embryo [19]; exposure time: 2 dpf", "result": 55.9, "unit": "µM"}, {"measurement": "EC50 Pericard size Increase", "setting": "Danio rerio embryo [19]; exposure time: 4 dpf", "result": 19.1, "unit": "µM"}, {"measurement": "EC10 Otolith-eye distance Decrease", "setting": "Danio rerio embryo [20]", "result": 16.5, "unit": "µM"}, {"measurement": "EC20 Yolk sac size Increase", "setting": "Danio rerio embryo [21]", "result": 16.3, "unit": "µM"}, {"measurement": "EC50 Curvature Increase", "setting": "Danio rerio embryo [22]; exposure time: 2 dpf", "result": 61.4, "unit": "µM"}, {"measurement": "EC50 Curvature Increase", "setting": "Danio rerio embryo [22]; exposure time: 4 dpf", "result": 30.8, "unit": "µM"}, {"measurement": "EC10 LMR dark", "setting": "Danio rerio embryo [23]", "result": 11.8, "unit": "µM"}, {"measurement": "EC10 Pericard size Increase", "setting": "Danio rerio embryo [24]; exposure time: 2 dpf", "result": 31.1, "unit": "µM"}, {"measurement": "EC10 Pericard size Increase", "setting": "Danio rerio embryo [24]; exposure time: 4 dpf", "result": 11.8, "unit": "µM"}, {"measurement": "EC10 Yolk sac size Increase", "setting": "Danio rerio embryo [25]", "result": 13.4, "unit": "µM"}, {"measurement": "EC50 LMR dark", "setting": "Danio rerio embryo [26]", "result": 16.2, "unit": "µM"}, {"measurement": "EC50 Body length Decrease", "setting": "Danio rerio embryo [27]; exposure time: 2 dpf", "result": 38, "unit": "µM"}, {"measurement": "EC50 Body length Decrease", "setting": "Danio rerio embryo [27]; exposure time: 4 dpf", "result": 27.1, "unit": "µM"}, {"measurement": "EC50 Otolith-eye distance Decrease", "setting": "Danio rerio embryo [28]", "result": 24.8, "unit": "µM"}, {"measurement": "EC20 Any effect", "setting": "Danio rerio embryo [29]; exposure time: 2 dpf", "result": 19.3, "unit": "µM"}, {"measurement": "EC20 Any effect", "setting": "Danio rerio embryo [29]; exposure time: 4 dpf", "result": 15.3, "unit": "µM"}]}]}
